Results as given in patent US20170176446A1, “Methods for Determining the Oncogenic Condition of Cell, Uses Thereof, and Methods for Treating Cancer” (INSERM (INSTITUT NATIONAL DE LA SANTE ET DE LA RECHERCHE …, priority 2009, published 2017).

Legend:
MCF7 cells [1] = experiment: OCDO production by MCF7 cells incubated with [14C]CE, thin-layer chromatography; assay type: cell-based, human; conditions: for % CE / % CT / % OCDO: [14C]CEα, concentration given with each compound, share of labeled oxysterols
Text: For assays 1 to 5 and in some of the examples given later in this patent application, MCF7 tumor cells, which originate from the American Tissue Culture Collection (ATCC), were used. […] It is desired to study the activity of ChEH in […] cells by silica thin-layer chromatography. The compounds that it is desired to visualize are the CE and CT compounds defined above. In order to visualize the spots corresponding to CE and CT on a chromatography plate, ^14C-labeled CE and CT compounds were synthesized.
In order to be used in assays 1 to 5 which follow, the cells are seeded into 6-well plates at a density of 80 000 cells in a volume of 2 ml. […] After the incubation time desired for the assay, the medium is collected, the cells are washed with cold PBS (phosphate buffer) (2 ml per well) which is pooled with the medium. The cells are then scraped into cold PBS (1 ml for 3 wells); the wells are again rinsed with cold PBS (1 ml for 3 wells). The cell suspension obtained is centrifuged at 1000 rpm for 5 min at 4° C. […] Throughout the rest of this description, the vehicle solvent used is the same as that defined above.
The aqueous and organic radioactivities are counted. The organic phases are brought to dryness under argon. The residue is resuspended in 60 μl of ethanol and then deposited, in a proportion of 20 μl per lane, on to the glass-backed silica plates (Whatman LK-6-DF, 20×20), which are used in the various assays (these plates having been preheated at 100° C. for 1 hour). The migration solvent used is ethyl acetate. The chromatography plates are placed in contact with a “phosphor-screen” plate in a cassette overnight. […] In order to evaluate the more or less dense nature of the spots obtained on the plates, the radioactivity is quantified by densitometry with the “Imagequant”™ computer program.
(§1) Generally, in order to establish the percentages of OCDO inhibition from the thin-layer chromatography (TLC) plates obtained as in assay 2, the radioactive metabolites are identified and quantified on the basis of said plates using a europium-sensitive plate of GP Phosphor screen type (GE Healthcare) and a Storm 840 phosphorimagor (GE Healthcare). The proportion of radiolabeled oxysterols is determined on the autoradiogram obtained by densitometry using the Image Quant 5.2 software. The percentage is calculated on the basis of the ratio between the amount of oxysterols quantified divided by the sum of the amounts of oxysterols (CEE+CE+CT+OCDO). Since the CEE (CE ester) originates exclusively from the CE, the percentage CE is calculated on the basis of the ratio (CE+CEE)/(CE+CEE+CT+OCDO).
Assay 2 given above was therefore completed by measuring the amounts of the products present when the MCF7 tumor cells are incubated as indicated in detail in assay 2.
In order to establish that the link that exists between, on the one hand, the ability of various compounds to inhibit OCDO in an MCF7 tumor cell and, on the other hand, their quality as a ChEH inhibitor, is well-founded, the inhibition coefficients Ki for ChEH relating to a certain number of products was calculated and the production of OCDO by MCF7 cells after incubation of the cells with the same products was measured according to the protocol defined in assay 2 of the present patent application.

ChEH = biological target: T1, ChEH (Rattus norvegicus, UniProt Q9JJ46); experiment: Determination of the Ki for ChEH on rat liver microsome proteins (Dixon method); assay type: biochemical; conditions: 150 μg rat liver microsome proteins, [14C]CEα
T1 construct: 150 μg of rat liver microsome proteins are incubated; from tissue; host or cells: rat liver microsomes
T1 sequence (Q9JJ46 1-230): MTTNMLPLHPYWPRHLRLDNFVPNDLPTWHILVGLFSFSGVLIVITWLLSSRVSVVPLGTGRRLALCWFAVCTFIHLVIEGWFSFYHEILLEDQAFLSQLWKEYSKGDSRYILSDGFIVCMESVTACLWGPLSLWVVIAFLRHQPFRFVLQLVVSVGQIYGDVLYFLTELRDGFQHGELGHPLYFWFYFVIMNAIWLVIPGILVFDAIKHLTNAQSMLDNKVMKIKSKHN

MCF7 cells [2] = experiment: OCDO production by MCF7 cells incubated with [14C]CT for 24 hours (example 11); assay type: cell-based, human; conditions: 10 μM, control = 100
Protocol: as §1
The following experiments were carried out: MCF7 tumor cells were placed in the presence of 0.5 μM of [^14C]CT and were then incubated for 24 hours in the presence of one of the following products: • 1. vehicle solvent (0.1% ethanol in a PBS buffer) serving as a control (lane 1) • 2. 10 μM of progesterone • 3. 10 μM of U18666A • 4. 100 nM of TCDD • 5. 10 μM of benzo(A)pyrene • 6. 10 μM of resveratrol • 7. 10 μM of PDM2 (Ant. 1).
Thin-layer chromatographies were carried out and FIG. 24 represents the plate obtained. The OCDO production in the treated cells was quantified from the spots of the various lanes, by applying the protocol given in detail in example 7. The results of this quantification are represented by the histogram of FIG. 24.
The amounts of OCDO produced by MCF7 cells, when they are incubated according to the same protocol as defined above with other Ahr receptor antagonists, was also measured, the control test being brought to 100 and the OCDO production being expressed as % of the control (same control as above).

[3] = concentration in μM in parentheses after each molecule, control = 100

Compound	OCDO production by MCF-7 (% control) (MCF7 cells [1]; [3])	Ki (ChEH) [µM]	further results
CC/C(=C(\c1ccc(O)cc1)c1ccc(OCCN(C)C)cc1)c1ccccc1 [4OH-Tamoxifen, 4-[(Z)-1-[4-(2-dimethylaminoethyloxy)-phenyl]-2-phenylbut-1-enyl]phenol]	<1	0.145 ± 0.004	–
Clc1ccccc1CNC[C@H]1CC[C@H](CNCc2ccccc2Cl)CC1 [AY-9944, trans-1,4-bis(2-chlorobenzaminomethyl)-cyclohexane]	<1	0.649 ± 0.006	–
CCCCc1oc2ccccc2c1C(=O)c1cc(I)c(OCCN(CC)CC)c(I)c1 [Amiodarone, (2-butyl-1-benzofuran-3-yl)-[4-(2-diethylaminoethyloxy)-3,5-diiodophenyl]methanone]	8	–	–
Clc1ccc(/C=C/c2cc(Cl)cc(Cl)c2)cc1 [Ant 1, (E)-1-(4′-chlorophenyl)-2-(3,5-dichlorophenyl)-ethene]	–	–	OCDO production by MCF-7 (% control) (MCF7 cells [2]): <1 % control
COc1ccc(/C=C/c2cc(F)cc(F)c2)cc1 [Ant 2, (E)-1-(4′-methoxyphenyl)-2-(3,5-fluorophenyl)-ethene]	–	–	OCDO production by MCF-7 (% control) (MCF7 cells [2]): <1 % control
Fc1ccc(/C=C/c2cc(F)cc(F)c2)cc1 [Ant 3, (E)-1-(4′-fluorophenyl)-2-(3,5-fluorophenyl)-ethene]	–	–	OCDO production by MCF-7 (% control) (MCF7 cells [2]): <1 % control
FC(F)(F)c1ccc(/C=C/c2cc(C(F)(F)F)cc(C(F)(F)F)c2)cc1 [Ant 4, (E)-1-(4′-trifluoromethylphenyl)-2-(3,5-trifluoromethylphenyl)ethene]	–	–	OCDO production by MCF-7 (% control) (MCF7 cells [2]): <1 % control
COc1cc(/C=C/c2ccc(F)cc2)cc(OC)c1 [Ant 5, (E)-1-(4′-fluorophenyl)-2-(3,5-dimethoxy-phenyl)ethene]	–	–	OCDO production by MCF-7 (% control) (MCF7 cells [2]): <1 % control
CC(C)CCC[C@@H](C)[C@H]1CC[C@H]2[C@@H]3C[C@@H]4O[C@@]45C[C@@H](O)CC[C@]5(C)[C@H]3CC[C@]12C [CEα, 5,6-α-epoxycholestan-3β-ol]	–	–	% CE (MCF7 cells [1]; MCF7 cells, three days): 31.5%; % CT (MCF7 cells [1]; MCF7 cells, three days): 41.5%; % OCDO (MCF7 cells [1]; MCF7 cells, three days): 27%
CCN(CC)CCOc1ccc(/C(=C(\Cl)c2ccccc2)c2ccccc2)cc1 [Clomiphene, 2-[4-[(Z)-2-chloro-1,2-di(phenyl)ethenyl]-phenoxy]-N,N-diethylethanamine]	<1	–	–
O=C(CCCN1CCC(O)(c2ccc(Cl)cc2)CC1)c1ccc(F)cc1 [Haloperidol, 4-(4-(4-chlorophenyl)-4-hydroxypiperidin-1-yl)-1-(4-fluorophenyl)butan-1-one]	42	–	–
COc1ccc(/C(=C(\c2ccccc2)[N+](=O)[O-])c2ccc(OCCN3CCCC3)cc2)cc1 [Nitromiphene, 1-[2-[4-[(Z)-1-(4-methoxyphenyl)-2-nitro-2-phenylethenyl]phenoxy]ethyl]pyrrolidine]	<1	0.0177 ± 0.006	–
CC(C)(c1ccccc1)c1ccc(OCCN2CCCC2)cc1 [PCPE, 1-(2-(4-(2-phenylpropan-2-yl)phenoxy)ethyl)-pyrrolidine]	<1	0.0347 ± 0.008	–
CCN(CC)CCOc1ccc(C2C[C@]3(C)C(O)CC[C@H]3[C@@H]3CCc4cc(O)ccc4[C@@H]23)cc1 (some centres unmarked) [RU 39,411, 11-[4-N,N-[diethylaminoethoxy]phenyl]estra-1,3,5(10)triene-3,17-diol]	<1	0.155 ± 0.008	–
O=C(c1ccc(OCCN2CCCCC2)cc1)c1c(-c2ccc(O)cc2)sc2cc(O)ccc12 [Raloxifene, [6-hydroxy-2-(4-hydroxyphenyl)-1-benzothiophen-3-yl]-[4-(2-piperidin-1-ylethoxy)phenyl]methanone]	<1	0.0356 ± 0.004	% CE (MCF7 cells [1]; MCF7 cells, three days): 96.5%; % CT (MCF7 cells [1]; MCF7 cells, three days): 3%; % OCDO (MCF7 cells [1]; MCF7 cells, three days): 0.5%
Oc1ccc(C=Cc2cc(O)cc(O)c2)cc1 [Resveratrol]	–	–	OCDO production by MCF-7 (% control) (MCF7 cells [2]): <1 % control
C[C@@H]1CN(CCCn2c3ccccc3c3ccccc32)C[C@H](C)N1 [Rimcazole, 9-[3-[(3S,5R)-3,5-dimethylpiperazin-1-yl]propyl]carbazole]	12	2.325 ± 0.008	–
CCCC(C(=O)OCCN(CC)CC)(c1ccccc1)c1ccccc1 [SKF-525A, 2-diethylaminoethyl-2,2-diphenylpentanoate]	<1	1.904 ± 0.011	–
CCN(CC)CCOc1ccc(Cc2ccccc2)cc1 [Tesmilifene, 2-(4-benzylphenoxy)-N,N-diethylethanamine]	<1	0.0624 ± 0.003	% CE (MCF7 cells [1]; MCF7 cells, three days): 80.7%; % CT (MCF7 cells [1]; MCF7 cells, three days): 10.5%; % OCDO (MCF7 cells [1]; MCF7 cells, three days): 8.8%
CN1CCN(CCCN2c3ccccc3Sc3ccc(C(F)(F)F)cc32)CC1 [Trifluoroperazine, 10-[3-(4-methylpiperazin-1-yl)propyl]-2-(trifluoromethyl)phenothiazine]	<1	0.135 ± 0.007	–
CCN(CC)CCOc1ccc(C(O)(Cc2ccc(Cl)cc2)c2ccc(C)cc2)cc1 (centres unmarked) [Triparanol]	<1	0.0395 ± 0.003	–
CCN(CC)CCO[C@H]1CC[C@@]2(C)C(=CC[C@@H]3[C@@H]2CC[C@]2(C)C(=O)CC[C@@H]32)C1 [U-18666A, 3-beta-(2-(diethylamino)ethoxy)androst-5-en-17-one]	<1	0.0903 ± 0.005	–
CC(=O)N1CCN(c2ccc(OCC3COC(Cn4ccnc4)(c4ccc(Cl)cc4Cl)O3)cc2)CC1 (centres unmarked) [ketoconazole]	–	–	production of the epoxysterol CE and of its derivatives CT and OCDO (MCF7 cells [1]; 10 μM ketoconazole, three days, MCF7 cells): inhibition of the production of the epoxysterol CE and of its derivatives
CC[C@H](C)C(=O)O[C@H]1C[C@@H](C)C=C2C=C[C@H](C)[C@H](CC[C@@H]3C[C@@H](O)CC(=O)O3)[C@H]21 [lovastatin]	–	–	OCDO production by the MCF7 cells (MCF7 cells [1]; 10 μM, control brought to the value 100): less than 1
(E)-N,3,6,6-tetramethyl-N-(naphthalen-1-ylmethyl)hept-2-en-4-yn-1-amine [Terbinafine]	<1	9.105 ± 0.033	–
Ibogaine	–	–	OCDO production by MCF-7 (% control) (MCF7 cells [1]): 25 % control
